{"source": "paper PMC3646541", "about": "(Nature protocols, 2011)", "test_system": "four of the six Bcl-2 family proteins", "assay": "Multiplex flow cytometry competition dose-response against F-Bim", "format": "binding", "conditions": "constant 50 nM F-Bim, dose-response series (Fig. 2b)", "data": [{"molecule": "CN(C)CC[C@H](CSc1ccccc1)Nc1ccc(S(=O)(=O)NC(=O)c2ccc(N3CCN(Cc4ccccc4-c4ccc(Cl)cc4)CC3)cc2)cc1[N+](=O)[O-]", "note": "[ABT-737]", "values": [{"measurement": "ability to block F-Bim binding", "value": "block F-Bim binding to four of them at relatively low concentrations"}]}]}
